Source: PubChem BioAssay AID1963985 (Molecular Pharmacology Branch, DTP, NCI, 2024)

Tested on: 252836-082-R-J2-PDC tumor spheroids, viability
Assay: Anticancer human tumor 252836-082-R-J2-PDC patient-derived head and neck squamous cell carcinoma cell line growth inhibition [PI3K]
Settings: spheroids with HUVEC and MSC; for IC50: curve of first compound; for viability, T/C: stronger effect = lower value
Source text: Combinatorial screen of targeted agents with the PI3K inhibitors inavolisib, alpelisib, duvelisib, and copanlisib in multi-cell type tumor spheroids
A high-throughput screen of multi-cell type tumor spheroids was designed to identify active combinations of targeted small molecules and PI3K pathway inhibitors. Complex spheroids include a stromal component modeled by human endothelial cells (HUVEC) and fibroblasts modeled by human mesenchymal stem cells (MSCs). The concentration ranges selected for each drug and investigational agent were based upon clinically achievable concentrations if the clinical Cmax of the agent was known.
Compounds. The drugs and investigational agents: inavolisib (NSC800729), alpelisib (NSC765974), duvelisib (NSC772469), copanlisib (NSC816437), ipatasertib (NSC767898), afuresertib (NSC778305), talazoparib (NSC767125), sapanisertib (NSC764658), selumetinib (NSC741078), tovorafenib (DAY101, NSC766906), vemurafenib (NSC761431), ravoxertinib (NSC781343), sotorasib (NSC818433), MRTX1133 (NSC 836407), abemaciclib (NSC 768073), palbociclib (NSC758247), venetoclax (NSC 766270), SY5609 (NSC837396), enzalutamide (NSC755605), and darolutamide (NSC825331), were obtained from the National Cancer Institute (NCI) Developmental Therapeutics Program Chemical Repository. The FDA-approved anticancer drug set is available from the NCI Developmental Therapeutics Program. […] The stock solutions were prepared in dimethyl sulfoxide (DMSO, Sigma-Aldrich, St. Louis, MO, cat. D2650) at 800-fold the tested concentration and stored at -70 degrees C prior to their use. All drugs and investigational agents were tested over a range starting from a high concentration at or near the clinical Cmax and decreasing in half-log increments. If the clinical Cmax for an agent had not been determined, the highest concentration tested was 10 microM.
Cell Culture. All cells were maintained in an incubator at 37 degrees C and 5% CO2 with 95% humidity. The PDC lines were cultured according to standard operating procedures established by the NCI PDMR (https://pdmr.cancer.gov/sops/default.htm). All PDCs were thawed and cultured in Matrigel-coated flasks prepared with a working solution of 1X Ham's F-12 nutrient mix, without supplementation (Invitrogen, Waltham, MA, cat. 11765054), 100 U/mL penicillin-streptomycin (Invitrogen, cat. 15140122), and 2.5% Matrigel (Corning Inc., Corning, NY, cat. 354248) for the first three passages. The 354836-022-R-J1-PDC, 475296-252-R-J1-PDC, and 997726-040-R-J2-PDC lines were cultured in 6A media, which includes advanced DMEM/F-12 (Thermo Fisher Scientific, cat. 12634028), 10 mM HEPES (Thermo Fisher Scientific, cat. 15630080), 1X GlutaMAX supplement (Thermo Fisher Scientific, cat. 35050061), 0.1 mg/mL primocin (InvivoGen, San Diego, CA, cat. ant-pm-2), 10% defined fetal bovine serum, heat inactivated (HyClone Laboratories Inc., Logan, UT, cat. SH30070.03HI), 50% L-WRN conditioned media (ATCC, cat. CRL-3276), 1.25 mM N-Acetyl-L-cysteine (Sigma-Aldrich, cat. A9165), 10 mM nicotinamide (Sigma-Aldrich, cat. N0636), 1X B-27 supplement (Thermo Fisher Scientific, cat. 17504044), 1X N-2 supplement (Thermo Fisher Scientific, cat. 17502048), and 10 microM Y-27632 dihydrochloride (Tocris Bioscience, Bristol, United Kingdom, cat. 1254). The 624824-186-R-J2-PDC line was cultured in 6C/Colon 1B media, which includes all 6A media components plus 50 ng/mL human EGF recombinant protein (Thermo Fisher Scientific, cat. PHG0311). […]

[1] = second compound 0.0316 µM, first compound 0.0316 µM
[2] = second compound 0.0316 µM, first compound 0.1 µM
[3] = second compound 0.0316 µM, first compound 0.316 µM
[4] = second compound 0.0316 µM, first compound 1 µM
[5] = second compound 0.0316 µM, first compound 3.16 µM
[6] = second compound 0.0316 µM, first compound 10 µM
[7] = second compound 0.1 µM, first compound 0.0316 µM
[8] = second compound 0.1 µM, first compound 0.1 µM
[9] = second compound 0.1 µM, first compound 0.316 µM
[10] = second compound 0.1 µM, first compound 1 µM
[11] = second compound 0.1 µM, first compound 3.16 µM
[12] = second compound 0.1 µM, first compound 10 µM
[13] = second compound 0.316 µM, first compound 0.0316 µM
[14] = second compound 0.316 µM, first compound 0.1 µM
[15] = second compound 0.316 µM, first compound 0.316 µM
[16] = second compound 0.316 µM, first compound 1 µM
[17] = second compound 0.316 µM, first compound 3.16 µM
[18] = second compound 0.316 µM, first compound 10 µM
[19] = second compound 1 µM, first compound 0.0316 µM
[20] = second compound 1 µM, first compound 0.1 µM
[21] = second compound 1 µM, first compound 0.316 µM
[22] = second compound 1 µM, first compound 1 µM
[23] = second compound 1 µM, first compound 3.16 µM
[24] = second compound 1 µM, first compound 10 µM
[25] = second compound 3.16 µM, first compound 0.0316 µM
[26] = second compound 3.16 µM, first compound 0.1 µM
[27] = second compound 3.16 µM, first compound 0.316 µM
[28] = second compound 3.16 µM, first compound 1 µM
[29] = second compound 3.16 µM, first compound 3.16 µM
[30] = second compound 3.16 µM, first compound 10 µM
[31] = second compound 10 µM, first compound 0.0316 µM
[32] = second compound 10 µM, first compound 0.1 µM
[33] = second compound 10 µM, first compound 0.316 µM
[34] = second compound 10 µM, first compound 1 µM
[35] = second compound 10 µM, first compound 3.16 µM
[36] = second compound 10 µM, first compound 10 µM
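Note: spheroids exposed to agents for seven days before readout.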
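Throughout, for viability, T/C: percent of vehicle DMSO control viability so 100% = untreated growth.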

`CC(Cn1ccc(-c2ccc(C#N)c(Cl)c2)n1)NC(=O)c1cc(C(C)O)[nH]n1` (centres undefined) + Cc1nc(NC(=O)N2CCCC2C(N)=O)sc1-c1ccnc(C(C)(C)C(F)(F)F)c1 was tested, and the IC50 (second compound 0.0316 µM) was greater than 10 µM, the IC50 (second compound 0.1 µM) was greater than 10 µM and the IC50 (second compound 0.316 µM) was greater than 10 µM. The IC50 (second compound 1 µM) was greater than 10 µM, the IC50 (second compound 3.16 µM) was less than 0.0316 µM and the IC50 (second compound 10 µM) was less than 0.0316 µM. It also gave a viability, T/C [1] of 76.5%, a viability, T/C [2] of 75.4% and a viability, T/C [3] of 96%. It also gave a viability, T/C [4] of 85.9%, a viability, T/C [5] of 94.3% and a viability, T/C [6] of 71.5%. It also gave a viability, T/C [7] of 99.7%, a viability, T/C [8] of 85.1% and a viability, T/C [9] of 80.8%. For the same compound, the viability, T/C [10] was 85%, the viability, T/C [11] was 86.2% and the viability, T/C [12] was 81.5%. For the same compound, the viability, T/C [13] was 65.4%, the viability, T/C [14] was 70.9% and the viability, T/C [15] was 72.6%. It also gave a viability, T/C [16] of 74.5%, a viability, T/C [17] of 100% and a viability, T/C [18] of 64.7%. The viability, T/C [19] was 53.4%, the viability, T/C [20] was 58.3% and the viability, T/C [21] was 55.5%. It also gave a viability, T/C [22] of 60.8%, a viability, T/C [23] of 54.7% and a viability, T/C [24] of 53%. For the same compound, the viability, T/C [25] was 46.5%, the viability, T/C [26] was 48.2% and the viability, T/C [27] was 44.5%. The viability, T/C [28] was 55.3%, the viability, T/C [29] was 40.8% and the viability, T/C [30] was 42.9%. It also gave a viability, T/C [31] of 34%, a viability, T/C [32] of 37.3% and a viability, T/C [33] of 39.2%. The viability, T/C [34] was 37.3%, the viability, T/C [35] was 34.2% and the viability, T/C [36] was 31.1%.

`C#Cc1c(F)ccc2cc(O)cc(-c3ncc4c(N5CC6CCC(C5)N6)nc(OCC56CCCN5CC(F)C6)nc4c3F)c12` (centres undefined) + CC(Nc1ncnc2nc[nH]c12)c1cc2cccc(Cl)c2c(=O)n1-c1ccccc1 showed an IC50 (second compound 0.0316 µM) greater than 10 µM, an IC50 (second compound 0.1 µM) greater than 10 µM and an IC50 (second compound 0.316 µM) greater than 10 µM. It also gave an IC50 (second compound 1 µM) greater than 10 µM, an IC50 (second compound 3.16 µM) greater than 10 µM and an IC50 (second compound 10 µM) of 3.37 µM. The viability, T/C [1] was 90%, the viability, T/C [2] was 78.4% and the viability, T/C [3] was 82.8%. For the same compound, the viability, T/C [4] was 86.4%, the viability, T/C [5] was 82% and the viability, T/C [6] was 63.6%. It also gave a viability, T/C [7] of 90.8%, a viability, T/C [8] of 87% and a viability, T/C [9] of 90.8%. The viability, T/C [10] was 97.7%, the viability, T/C [11] was 82.6% and the viability, T/C [12] was 64.8%. For the same compound, the viability, T/C [13] was 96.1%, the viability, T/C [14] was 92.9% and the viability, T/C [15] was 90.1%. The viability, T/C [16] was 87.5%, the viability, T/C [17] was 73.5% and the viability, T/C [18] was 65.4%. It also gave a viability, T/C [19] of 83.3%, a viability, T/C [20] of 75.7% and a viability, T/C [21] of 88.6%. For the same compound, the viability, T/C [22] was 78.4%, the viability, T/C [23] was 88.4% and the viability, T/C [24] was 66.8%. It also gave a viability, T/C [25] of 84.7%, a viability, T/C [26] of 67.6% and a viability, T/C [27] of 73.7%. For the same compound, the viability, T/C [28] was 75%, the viability, T/C [29] was 69% and the viability, T/C [30] was 62.6%. For the same compound, the viability, T/C [31] was 54.5%, the viability, T/C [32] was 58.2% and the viability, T/C [33] was 53.9%. The viability, T/C [34] was 49.4%, the viability, T/C [35] was 55.6% and the viability, T/C [36] was 44.9%.
